According to patent US20090082322A1, “Gender Differences in Experimental Aortic Aneurysm Formation” (THE REGENTS OF THE UNIVERSITY OF MICHIGAN, priority 2004, published 2009):

Legend:
[1] = Serum estradiol levels after pellet implantation; type: in vivo; conditions: at 2 to 3 weeks, 21-day slow-release 0.1-mg pellet s.c.; control rats 15.0±2.2
Text: In other experiments, male rats were randomized to implantation of an estrogen pellet or sham implantation (n=13, each). The former involved the subcutaneous implantation of a 21-day slow-release 0.1-mg 17-β-estradiol pellet (Innovative Research of America, Sarasota, Fla.) in the posterior neck. Sham rats underwent the same implantation procedure without insertion of any pellet. This particular estradiol dose results in serum estradiol levels at 2 to 3 weeks of 44.7±6.1 pg/mL compared with 15.0±2.2 pg/mL in control rats (P<0.05). Rat aortas from both groups were subjected to elastase perfusion 5 days later. The aortas were then removed for study 7 or 14 days after elastase perfusion.
Male Sprague-Dawley rats (190 g to 210 g) were obtained from Charles River Laboratories. Subcutaneous neck implantation of a 21-day slow release 0.1 mg 17-β-estradiol pellet (Innovative Research of America) was performed under general inhalational anesthesia. This particular estradiol dose results in serum estradiol levels at 2 to 3 weeks of 44.7±6.1 pg/mL compared with 15.0±2.2 pg/mL in control rats (p<0.05). Three weeks after pellet implantation, the infrarenal aorta was explanted under general anesthesia. The aorta was briefly rinsed free of blood and debris with cold 1×PBS containing antibiotics, cut into 1-mm rings, and incubated for 48 hours in 1 mL of serum-free DMEM containing antibiotics and IL-1β. […]

[2] = system: elastase-perfused infrarenal abdominal aorta of male rats; assay: Elastase perfusion aneurysm model after estrogen pellet implantation, aortic diameter; type: in vivo, Sprague-Dawley rats; conditions: 0.1-mg 21-day slow-release pellet s.c.
Experimental: Pancreatic porcine elastase perfusion of the rat aortas was performed as described previously. (Anidjar S, et al., Circulation, 82:973-981 (1990)). Male and female rats (n=15, each) were anesthetized with 2-2.5% isoflurane inhalation, and the infrarenal abdominal aorta was isolated under sterile conditions. Digital video micrometry was performed to directly measure outer aortic diameter. Specifically, images of the aorta were obtained using a Spot Insight Color Optical Camera (Diagnostic Instruments, Sterling Heights, Mich.) attached to an operating microscope (Nikon, Melville, N.Y.). Aortic diameters were then measured at the level of the left renal vein, the mid-infrarenal aorta, and the aortic bifurcation in triplicate using Image Pro Express software (Media Cybernetics, Inc, Silver Spring, Md.). Temporary proximal and distal aortic control was obtained using temporary 4-0 cotton suture loops, following which an aortotomy was made near the aortic bifurcation with a 30-gauge needle. […] At 7 or 14 days, aortas were re-exposed and aortic diameters were re-measured in vivo. […] The infrarenal aorta was then removed and subjected to histological study, immunohistochemistry, and quantitative polymerase chain reaction (PCR). […]

For `C[C@]12CC[C@@H]3c4ccc(O)cc4CC[C@H]3[C@@H]1CC[C@@H]2O` [17-β-estradiol], which serum estradiol levels [1] is on record?
The serum estradiol levels was 44.7 ± 6.1 pg/mL.

And the “aortic expansion (increase in aortic diameter)” value ([2]; 7 days after elastase perfusion, sham 197%±39%, P=0.010)?
Its value is 124%±19.

What about the “aneurysm size (increase in aortic diameter)” value ([2]; 14 days after elastase perfusion, sham 538%±105, P=0.0226) of the same compound?
Its value is 241%±57.
